From ChEMBL document CHEMBL1201862, “PubChem BioAssay data set” (2004)
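A five-concentration, 48-hour dose response in 96-well plates underlies each endpoint, interpolated linearly between surrounding concentrations. GI50: concentration for 50% inhibition of growth.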 Active and inactive are the calls of the source. Cut-off read from the data, not from the text of the source: active = GI50 up to about 1.1 µM and inactive = higher.

Experiments:
Assay in all cases: NCI anticancer screen, dose series, 48 h
786-0 = test system: 786-0
A549 = test system: A549
ACHN = test system: ACHN
BT-549 = test system: BT-549
CAKI-1 = test system: CAKI-1
COLO 205 = test system: COLO 205
DU-145 = test system: DU-145
EKVX = test system: EKVX
HCC 2998 = test system: HCC 2998
HCT-116 = test system: HCT-116
HCT-15 = test system: HCT-15
HOP-62 = test system: HOP-62
HT-29 = test system: HT-29
IGROV-1 = test system: IGROV-1
K562 = test system: K562
KM12 = test system: KM12
LOX IMVI = test system: LOX IMVI
M14 = test system: M14
MDA-MB-231 = test system: MDA-MB-231
MDA-MB-435 = test system: MDA-MB-435
MOLT-4 = test system: MOLT-4
Malme-3M = test system: Malme-3M
NCI-H226 = test system: NCI-H226
NCI-H23 = test system: NCI-H23
NCI/ADR-RES = test system: NCI/ADR-RES
OVCAR-3 = test system: OVCAR-3
OVCAR-4 = test system: OVCAR-4
OVCAR-5 = test system: OVCAR-5
OVCAR-8 = test system: OVCAR-8
PC-3 = test system: PC-3
RPMI-8226 = test system: RPMI-8226
RXF 393 = test system: RXF 393
SF-268 = test system: SF-268
SF-295 = test system: SF-295
SF-539 = test system: SF-539
SK-MEL-28 = test system: SK-MEL-28
SK-MEL-2 = test system: SK-MEL-2
SK-MEL-5 = test system: SK-MEL-5
SK-OV-3 = test system: SK-OV-3
SNB-19 = test system: SNB-19
SR = test system: SR
SW-620 = test system: SW-620
T47D = test system: T47D
TK-10 = test system: TK-10
UACC-257 = test system: UACC-257
UO-31 = test system: UO-31
A498 = test system: A498
CCRF-CEM = test system: CCRF-CEM
HL-60 = test system: HL-60
HOP-92 = test system: HOP-92
Hs-578T = test system: Hs-578T
MCF7 = test system: MCF7
MDA-N = test system: MDA-N
NCI-H460 = test system: NCI-H460
SN12C = test system: SN12C
SNB-75 = test system: SNB-75
U-251 = test system: U-251
UACC-62 = test system: UACC-62

CC12CCC([C@H](Nc3cc(C(F)(F)F)cc(C(F)(F)F)c3)C1=O)C2(C)C (some centres not stated)
GI50 (786-0): > 100 µM (inactive) | GI50 (A549): > 100 µM (inactive) | GI50 (ACHN): > 100 µM (inactive) | GI50 (BT-549): > 100 µM (inactive) | GI50 (CAKI-1): > 100 µM (inactive) | GI50 (COLO 205): > 100 µM (inactive) | GI50 (DU-145): > 100 µM (inactive) | GI50 (EKVX): > 100 µM (inactive) | GI50 (HCC 2998): > 100 µM (inactive) | GI50 (HCT-116): > 100 µM (inactive) | GI50 (HCT-15): > 100 µM | GI50 (HOP-62): 33.7 µM (inactive) | GI50 (HT-29): 84.3 µM (inactive) | GI50 (IGROV-1): 47.3 µM (inactive) | GI50 (K562): > 100 µM (inactive) | GI50 (KM12): > 100 µM (inactive) | GI50 (LOX IMVI): > 100 µM (inactive) | GI50 (M14): > 100 µM (inactive) | GI50 (MDA-MB-231): > 100 µM (inactive) | GI50 (MDA-MB-435): > 100 µM (inactive) | GI50 (MOLT-4): > 100 µM (inactive) | GI50 (Malme-3M): > 100 µM (inactive) | GI50 (NCI-H226): > 100 µM (inactive) | GI50 (NCI-H23): > 100 µM (inactive) | GI50 (NCI/ADR-RES): > 100 µM (inactive) | GI50 (OVCAR-3): 16.8 µM (inactive) | GI50 (OVCAR-4): > 100 µM (inactive) | GI50 (OVCAR-5): > 100 µM (inactive) | GI50 (OVCAR-8): > 100 µM (inactive) | GI50 (PC-3): > 100 µM (inactive) | GI50 (RPMI-8226): 0.158 µM (active) | GI50 (RXF 393): 0.0162 µM (active) | GI50 (SF-268): > 100 µM (inactive) | GI50 (SF-295): 37.4 µM (inactive) | GI50 (SF-539): > 100 µM (inactive) | GI50 (SK-MEL-28): > 100 µM (inactive) | GI50 (SK-MEL-2): > 100 µM (inactive) | GI50 (SK-MEL-5): > 100 µM (inactive) | GI50 (SK-OV-3): > 100 µM (inactive) | GI50 (SNB-19): > 100 µM (inactive) | GI50 (SR): > 100 µM (inactive) | GI50 (SW-620): > 100 µM (inactive) | GI50 (T47D): > 100 µM (inactive) | GI50 (TK-10): > 100 µM (inactive) | GI50 (UACC-257): > 100 µM (inactive) | GI50 (UO-31): > 100 µM (inactive)

N#CC(C#N)=c1c2ccccc2c(=C(C#N)C#N)c2ccccc12
GI50 (786-0): 14.9 µM (inactive) | GI50 (A498): 23.8 µM (inactive) | GI50 (A549): 31 µM (inactive) | GI50 (ACHN): 20 µM (inactive) | GI50 (BT-549): 23 µM (inactive) | GI50 (CAKI-1): 14.9 µM (inactive) | GI50 (CCRF-CEM): 7.46 µM (inactive) | GI50 (COLO 205): 21.2 µM (inactive) | GI50 (HCT-116): 17.8 µM (inactive) | GI50 (HCT-15): 43.3 µM | GI50 (HL-60): 19.8 µM (inactive) | GI50 (HOP-62): 19.4 µM (inactive) | GI50 (HOP-92): 32.9 µM (inactive) | GI50 (HT-29): 18.6 µM (inactive) | GI50 (Hs-578T): 20.8 µM (inactive) | GI50 (IGROV-1): 12.8 µM (inactive) | GI50 (K562): 19.9 µM (inactive) | GI50 (KM12): 18.1 µM (inactive) | GI50 (LOX IMVI): 17.8 µM (inactive) | GI50 (M14): 17.4 µM (inactive) | GI50 (MCF7): 5.61 µM (inactive) | GI50 (MDA-MB-231): 16.4 µM (inactive) | GI50 (MDA-MB-435): 18.4 µM (inactive) | GI50 (MDA-N): 18.7 µM (inactive) | GI50 (MOLT-4): 7.76 µM (inactive) | GI50 (NCI-H226): 17.7 µM (inactive) | GI50 (NCI-H23): 19.6 µM (inactive) | GI50 (NCI-H460): 42.2 µM (inactive) | GI50 (NCI/ADR-RES): 25.6 µM (inactive) | GI50 (OVCAR-3): 16.3 µM (inactive) | GI50 (OVCAR-5): 20.9 µM (inactive) | GI50 (OVCAR-8): 20.1 µM (inactive) | GI50 (PC-3): 16.1 µM (inactive) | GI50 (RPMI-8226): 23.6 µM (inactive) | GI50 (SF-268): 22.9 µM (inactive) | GI50 (SK-MEL-28): 17.7 µM (inactive) | GI50 (SK-MEL-2): 17.1 µM (inactive) | GI50 (SK-MEL-5): 16.7 µM (inactive) | GI50 (SK-OV-3): 25.1 µM (inactive) | GI50 (SN12C): 16.6 µM (inactive) | GI50 (SNB-19): 14.6 µM (inactive) | GI50 (SNB-75): 18.1 µM (inactive) | GI50 (SW-620): 24.8 µM (inactive) | GI50 (U-251): 19.4 µM (inactive) | GI50 (UACC-257): 23.1 µM (inactive) | GI50 (UACC-62): 13.2 µM (inactive)
